{"source": "patent EP0600087A1", "about": "“METHOD AND KIT OF IN VITRO IRRITATION TEST” (priority 1991, dated 1993)", "key": {"[1]": {"test_system": "rabbit", "test": "Draize method, ocular irritation", "assay_type": "in vivo", "details": "for Draize score Ocular irritation: Table 1, Conc. of test substance 0.5%; for Actual evaluation: Table 3, Draize ocular irritation score used for the regression; for Found value: Table 4, measurements according to the Draize method", "description": "The assay and evaluation as to whether or not a foreign substance gives harmful irritation to a living body which induces vital reactions, for example, inflammation, hemolysis, opacification, and swelling, are essential in the product development in the technical fields of cosmetics, medicines, and other medical materials and oleo chemicals where a particular substance is directly applied to the living body At the present time, experimental animals are mainly used for these assay and evaluation. In the tests, particularly in irritation tests, use is made of a skin irritation test (primary irritation and accumulating irritation), an ocular irritation test, a patch test, and a mucous membrane irritation test (tunica mucosa oris and urogenital mucosa membrane). For example, in the ocular irritation test, the Draize method, which uses a rabbit, is generally adopted. In this method, the ocular irritation by a test substance is assayed particularly through (1) the determination of the degree of clouding of the cornea, (2) the evaluation of the incidence of congestion or edema of the conjunctiva, and (3) the evaluation of the incidence of congestion or swelling of the iris.\nThe same test substance as that used above was subjected to a test according to the Draize method."}, "[2]": {"test": "Estimate of Draize score by regression of HDR values (Example 3)", "details": "Draize score estimated by 17.61 + 0.624 1% HDR + 0.481 0.016% HDR", "description": "The results thus obtained were subjected to regression using the following associative equation to obtain the above-described correlation coefficient. 17.61 + 0.624 1% HDR + 0.481 0.016% HDR [formula] Consequently, a very good correspondence was observed even with evaluation by a plurality of concentrations."}, "[3]": {"test": "Estimate of Draize score by regression of RBC and HDR values (Example 4)", "details": "estimated value based on the Draize method using the associative equation with RBC, 2% HDR, 0.25% HDR, 0.063% HDR", "description": "• Method 1: The procedure as described in Example 1 was repeated. • Method 2: The procedure as described in Example 2 was repeated.\nThe results obtained from the two methods were subjected to regression using the associative equation below: […]\nHere, the calculated values are estimated values based on the Draize method using the above-described associative equation, and the found values are measurements according to the Draize method."}, "[4]": {"details": "Table 1, Conc. of test substance 0.5%"}}, "note": "Read-outs that look alike come from different tables or passages of the source.", "data": [{"smiles": "CCCCCCCCCCCCCCCC[n+]1ccccc1", "note": "[Cetyl pyridinium chloride]", "values": [{"measurement": "Draize score Ocular irritation", "setting": "[1]", "value": 70}, {"measurement": "Actual evaluation", "setting": "[1]", "value": 70.000}, {"measurement": "Found value", "setting": "[1]", "value": 35}, {"measurement": "Draize score Primary ocular irritation", "setting": "in vivo", "value": 4.0}, {"measurement": "Draize score Primary skin irritation", "setting": "in vivo", "value": 4.0}]}, {"smiles": "CCCCCCCCOc1ccccc1", "note": "[Octyl phenyl ether]", "values": [{"measurement": "Draize score Ocular irritation", "setting": "[1]", "value": 8.7}, {"measurement": "Actual evaluation", "setting": "[1]", "value": 3.700}, {"measurement": "Found value", "setting": "[1]", "value": 8.7}, {"measurement": "Estimated value", "setting": "[2]", "value": 17.610}, {"measurement": "Calculated value", "setting": "[3]", "value": 6.9685}, {"measurement": "Draize score Primary ocular irritation", "setting": "[4]", "value": 0.2}]}, {"smiles": "CCCCCCCCCCCCOS(=O)(=O)[O-].[Na+]", "note": "[SDS, sodium dodecylsulfate]", "values": [{"measurement": "Draize score Ocular irritation", "setting": "[1]", "value": 35.1}, {"measurement": "Actual evaluation", "setting": "[1]", "value": 35.100}, {"measurement": "Found value", "setting": "[1]", "value": 70}, {"measurement": "Estimated value", "setting": "[2]", "value": 43.331}, {"measurement": "Calculated value", "setting": "[3]", "value": 70.5078}, {"measurement": "Draize score Primary ocular irritation", "setting": "[4]", "value": 6.9}]}]}
